Literature values, collected in US12623013B2, “Compounds, systems, and techniques for removal of peripheral amyloid beta peptide with albumin binding competitors” (Fresenius Medical Care Holdings, Inc., priority 2021, dated 2026).

Biological target: human albumin (Homo sapiens, UniProt P02768)
Details: read-out: binding constant to human albumin

Chain of human albumin (P02768 25-609): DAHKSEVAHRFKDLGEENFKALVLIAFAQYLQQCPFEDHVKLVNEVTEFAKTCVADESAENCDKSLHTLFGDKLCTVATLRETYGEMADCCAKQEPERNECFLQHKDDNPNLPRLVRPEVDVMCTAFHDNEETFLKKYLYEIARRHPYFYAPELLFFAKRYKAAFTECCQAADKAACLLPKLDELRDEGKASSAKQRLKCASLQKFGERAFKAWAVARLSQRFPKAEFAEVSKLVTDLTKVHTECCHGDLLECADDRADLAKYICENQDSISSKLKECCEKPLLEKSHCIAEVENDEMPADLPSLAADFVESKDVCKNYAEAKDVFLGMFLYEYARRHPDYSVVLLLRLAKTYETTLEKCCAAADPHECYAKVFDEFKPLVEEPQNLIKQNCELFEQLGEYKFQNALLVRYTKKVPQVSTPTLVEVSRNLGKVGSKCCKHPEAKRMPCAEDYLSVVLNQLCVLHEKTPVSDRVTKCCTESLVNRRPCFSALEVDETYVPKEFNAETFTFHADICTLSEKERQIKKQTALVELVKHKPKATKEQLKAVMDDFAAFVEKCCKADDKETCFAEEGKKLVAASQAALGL

For Ac-WWEQDRDWDFDVFGGGTP-NH2 [89D03], the Kd is listed as ~0.015 µM.
